Measured values as given in patent publication US20240092784A1, “CONDENSED HETEROCYCLIC COMPOUND” (NISSAN CHEMICAL CORPORATION, priority 2020, published 2024).
Structures can show the parent of a compound that is named as a salt.

Molecular target: human SPR (Homo sapiens (Human), UniProt P35270)
Assay: Evaluation Example 2: Measurement of human SPR inhibitory activity (seven concentrations, sepiapterin absorbance at 420 nm)
Format: biochemical
Settings: Evaluation Example 2, seven concentrations 0.14 nM to 100 nM, 240 minutes at room temperature, read-out: IC50
How it was run: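 Reactions ran 240 min at room temperature in 100 mM Tris-HCl pH 7.5 with 0.01% BSA. They contained tag-cleaved, E. coli-expressed full-length human SPR (diluted to 150 ng/mL), seven compound concentrations from 0.14 to 100 nM, and sepiapterin/NADPH added as a 120 μM/160 μM solution. Inhibition was calculated from sepiapterin absorbance at 420 nm.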

Sequence of human SPR (P35270 whole entry): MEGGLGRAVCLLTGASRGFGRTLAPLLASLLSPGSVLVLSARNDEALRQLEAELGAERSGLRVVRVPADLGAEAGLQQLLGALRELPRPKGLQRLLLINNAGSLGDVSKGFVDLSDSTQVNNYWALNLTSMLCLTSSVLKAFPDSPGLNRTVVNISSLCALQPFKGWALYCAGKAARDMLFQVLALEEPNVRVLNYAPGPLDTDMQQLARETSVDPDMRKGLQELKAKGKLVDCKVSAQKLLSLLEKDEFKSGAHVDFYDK

SMILES	IC50
CNc1nn2c(O)c(C(=O)NC3CC3)c(=O)n(CC(C)C)c2c1/C=C/C(=O)N1CCCC1 [Synthesis Example 427, (E)-N-Cyclopropyl-7-hydroxy-4-isobutyl-2-(methylamino)-5-oxo-3-(3-oxo-3-(pyrrolidin-1-yl)prop-1-en-1-yl)-4,5-dihydropyrazolo[1,5-a]pyrimidine-6-carboxamide]	0.95 nM
CNc1nn2c(O)c(C(=O)NC3CC3)c(=O)n(CC(C)C)c2c1/C=C/C(=O)N1CCC(F)(F)C1 [Synthesis Example 428, (E)-N-Cyclopropyl-3-(3-(3,3-difluoropyrrolidin-1-yl)-3-oxoprop-1-en-1-yl)-7-hydroxy-4-isobutyl-2-(methylamino)-5-oxo-4,5-dihydropyrazolo[1,5-a]pyrimidine-6-carboxamide]	0.84 nM
CNc1nn2c(O)c(C(=O)NC3CC3)c(=O)n(CC(C)C)c2c1/C=C/C(=O)N1CC[C@H](F)C1 [Synthesis Example 429, (S,E)-N-Cyclopropyl-3-(3-(3-fluoropyrrolidin-1-yl)-3-oxoprop-1-en-1-yl)-7-hydroxy-4-isobutyl-2-(methylamino)-5-oxo-4,5-dihydropyrazolo[1,5-a]pyrimidine-6-carboxamide]	0.8 nM
CNc1nn2c(O)c(C(=O)NC3CC3)c(=O)n(CC(C)C)c2c1/C=C/C(=O)N1CCOC[C@@H]1C [Synthesis Example 430, (S,E)-N-Cyclopropyl-7-hydroxy-4-isobutyl-2-(methylamino)-3-(3-(3-methylmorpholino)-3-oxoprop-1-en-1-yl)-5-oxo-4,5-dihydropyrazolo[1,5-a]pyrimidine-6-carboxamide]	0.92 nM
CNc1nn2c(O)c(C(=O)NC3CC3)c(=O)n(CC(C)C)c2c1/C=C/C(=O)N1CC2CCC(C1)O2 [Synthesis Example 431, (E)-3-(3-(8-Oxa-3-azabicyclo[3.2.1]octan-3-yl)-3-oxoprop-1-en-1-yl)-N-cyclopropyl-7-hydroxy-4-isobutyl-2-(methylamino)-5-oxo-4,5-dihydropyrazolo[1,5-a]pyrimidine-6-carboxamide]	0.81 nM
CNc1nn2c(O)c(C(=O)NC3CC3)c(=O)n(CC(C)C)c2c1/C=C/C(=O)N1[C@@H](C)COC[C@@H]1C [Synthesis Example 432, N-Cyclopropyl-3-((E)-3-((3S,5S)-3,5-dimethylmorpholino)-3-oxoprop-1-en-1-yl)-7-hydroxy-4-isobutyl-2-(methylamino)-5-oxo-4,5-dihydropyrazolo[1,5-a]pyrimidine-6-carboxamide]	0.66 nM
CC(C)(C)Cn1c(=O)c(C(=O)NC2CC2)c(O)n2nc(N)c(/C=C/C3CCOCC3)c12 [Synthesis Example 433, (E)-2-Amino-N-cyclopropyl-7-hydroxy-4-neopentyl-5-oxo-3-(2-(tetrahydro-2H-pyran-4-yl)vinyl)-4,5-dihydropyrazolo[1,5-a]pyrimidine-6-carboxamide hydrochloride]	0.97 nM
CC(C)Cn1c(=O)c(C(=O)NC2CC2)c(O)n2nc(N)c(/C=C/C3CCOCC3)c12 [Synthesis Example 434, (E)-2-Amino-N-cyclopropyl-7-hydroxy-4-isobutyl-5-oxo-3-(2-(tetrahydro-2H-pyran-4-yl)vinyl)-4,5-dihydropyrazolo[1,5-a]pyrimidine-6-carboxamide hydrochloride]	1.4 nM
C=Cc1c(N)nn2c(O)c(C(=O)NC3CC3)c(=O)n(CC(C)C)c12 [Synthesis Example 435, 2-Amino-N-cyclopropyl-7-hydroxy-4-isobutyl-5-oxo-3-vinyl-4,5-dihydropyrazolo[1,5-a]pyrimidine-6-carboxamide]	1.46 nM
CCc1c(N)nn2c(O)c(C(=O)NC3CC3)c(=O)n(CC(C)(C)C)c12 [Synthesis Example 436, 2-Amino-N-cyclopropyl-3-ethyl-7-hydroxy-4-neopentyl-5-oxo-4,5-dihydropyrazolo[1,5-a]pyrimidine-6-carboxamide hydrochloride]	1.2 nM
Cc1c(N)nn2c(O)c(C(=O)NC3CC3)c(=O)n(CC(C)(C)C)c12 [Synthesis Example 437, 2-Amino-N-cyclopropyl-7-hydroxy-3-methyl-4-neopentyl-5-oxo-4,5-dihydropyrazolo[1,5-a]pyrimidine-6-carboxamide hydrochloride]	1.38 nM
C/C=C/c1c(N)nn2c(O)c(C(=O)NC3CC3)c(=O)n(CC(C)(C)C)c12 [Synthesis Example 438, (E)-2-Amino-N-cyclopropyl-7-hydroxy-4-neopentyl-5-oxo-3-(prop-1-en-1-yl)-4,5-dihydropyrazolo[1,5-a]pyrimidine-6-carboxamide hydrochloride]	0.98 nM
CC(C)Cn1c(=O)c(C(=O)NC2CC2)c(O)n2nc(N)c(/C=C/C(C)(C)C)c12 [Synthesis Example 439, (E)-2-Amino-N-cyclopropyl-3-(3,3-dimethylbut-1-en-1-yl)-7-hydroxy-4-isobutyl-5-oxo-4,5-dihydropyrazolo[1,5-a]pyrimidine-6-carboxamide hydrochloride]	1.61 nM
CC(C)(C)Cn1c(=O)c(C(=O)NC2CC2)c(O)n2nc(N)c(/C=C/C3CC3)c12 [Synthesis Example 440, (E)-2-Amino-N-cyclopropyl-3-(2-cyclopropylvinyl)-7-hydroxy-4-neopentyl-5-oxo-4,5-dihydropyrazolo[1,5-a]pyrimidine-6-carboxamide hydrochloride]	1.2 nM
CC(C)Cn1c(=O)c(C(=O)NC2CC2)c(O)n2nc(N)c(/C=C/C3CCCCC3)c12 [Synthesis Example 441, (E)-2-Amino-3-(2-cyclohexylvinyl)-N-cyclopropyl-7-hydroxy-4-isobutyl-5-oxo-4,5-dihydropyrazolo[1,5-a]pyrimidine-6-carboxamide]	4.74 nM
CC(C)/C=C/c1c(N)nn2c(O)c(C(=O)NC3CC3)c(=O)n(CC(C)(C)C)c12 [Synthesis Example 442, (E)-2-Amino-N-cyclopropyl-7-hydroxy-3-(3-methylbut-1-en-1-yl)-4-neopentyl-5-oxo-4,5-dihydropyrazolo[1,5-a]pyrimidine-6-carboxamide hydrochloride]	1.53 nM
Nc1nn2c(O)c(C(=O)NC3CC3)c(=O)n(CC3CCOCC3)c2c1/C=C/C1CCOCC1 [Synthesis Example 443, (E)-2-Amino-N-cyclopropyl-7-hydroxy-5-oxo-4-((tetrahydro-2H-pyran-4-yl)methyl)-3-(2-(tetrahydro-2H-pyran-4-yl)vinyl)-4,5-dihydropyrazolo[1,5-a]pyrimidine-6-carboxamide hydrochloride]	0.65 nM
CC(C)(C)Cn1c(=O)c(C(=O)NC2CC2)c(O)n2nc(N)c(/C=C/C3CCOC3)c12 (stereo not shown) [Synthesis Example 444, (E)-2-Amino-N-cyclopropyl-7-hydroxy-4-neopentyl-5-oxo-3-(2-(tetrahydrofuran-3-yl)vinyl)-4,5-dihydropyrazolo[1,5-a]pyrimidine-6-carboxamide hydrochloride]	0.98 nM
CC1(Cn2c(=O)c(C(=O)NC3CC3)c(O)n3nc(N)c(/C=C/C4CCOCC4)c23)CCOCC1 [Synthesis Example 445, (E)-2-Amino-N-cyclopropyl-7-hydroxy-4-((4-methyltetrahydro-2H-pyran-4-yl)methyl)-5-oxo-3-(2-(tetrahydro-2H-pyran-4-yl)vinyl)-4,5-dihydropyrazolo[1,5-a]pyrimidine-6-carboxamide hydrochloride]	0.66 nM
COC[C@H]1CCCN1C(=O)/C=C/c1c(C)nn2c(O)c(C(=O)NC3CC3)c(=O)n(CC(C)C)c12 [Synthesis Example 612, (R,E)-N-Cyclopropyl-7-hydroxy-4-isobutyl-3-(3-(2-(methoxymethyl)pyrrolidin-1-yl)-3-oxoprop-1-en-1-yl)-2-methyl-5-oxo-4,5-dihydropyrazolo[1,5-a]pyrimidine-6-carboxamide]	1.23 nM
COC[C@@H]1CCCN1C(=O)/C=C/c1c(C)nn2c(O)c(C(=O)NC3CC3)c(=O)n(CC(C)C)c12 [Synthesis Example 613, (S,E)-N-Cyclopropyl-7-hydroxy-4-isobutyl-3-(3-(2-(methoxymethyl)pyrrolidin-1-yl)-3-oxoprop-1-en-1-yl)-2-methyl-5-oxo-4,5-dihydropyrazolo[1,5-a]pyrimidine-6-carboxamide]	1.04 nM
Cc1nn2c(O)c(C(=O)NC3CC3)c(=O)n(CC(C)C)c2c1/C=C/C(=O)N1CCC(C(F)(F)F)C1 (stereo not shown) [Synthesis Example 614, (E)-N-Cyclopropyl-7-hydroxy-4-isobutyl-2-methyl-5-oxo-3-(3-oxo-3-(3-(trifluoromethyl)pyrrolidin-1-yl)prop-1-en-1-yl)-4,5-dihydropyrazolo[1,5-a]pyrimidine-6-carboxamide]	1.49 nM
Cc1nn2c(O)c(C(=O)NC3CC3)c(=O)n(CC(C)C)c2c1/C=C/C(=O)N1CCN(C2CC(F)(F)C2)CC1 [Synthesis Example 615, (E)-N-Cyclopropyl-3-(3-(4-(3,3-difluorocyclobutyl)piperazin-1-yl)-3-oxoprop-1-en-1-yl)-7-hydroxy-4-isobutyl-2-methyl-5-oxo-4,5-dihydropyrazolo[1,5-a]pyrimidine-6-carboxamide]	1.4 nM
Cc1nn2c(O)c(C(=O)NC3CC3)c(=O)n(CC(C)C)c2c1/C=C/C(=O)N1[C@H](C)CC[C@H]1C [Synthesis Example 616, N-Cyclopropyl-3-((E)-3-((2R,5R)-2,5-dimethylpyrrolidin-1-yl)-3-oxoprop-1-en-1-yl)-7-hydroxy-4-isobutyl-2-methyl-5-oxo-4,5-dihydropyrazolo[1,5-a]pyrimidine-6-carboxamide]	1.12 nM
Cc1nn2c(O)c(C(=O)NC3CC3)c(=O)n(CC(C)C)c2c1/C=C/C(=O)N1[C@@H](C)CC[C@@H]1C [Synthesis Example 617, N-Cyclopropyl-3-((E)-3-((2S,5S)-2,5-dimethylpyrrolidin-1-yl)-3-oxoprop-1-en-1-yl)-7-hydroxy-4-isobutyl-2-methyl-5-oxo-4,5-dihydropyrazolo[1,5-a]pyrimidine-6-carboxamide]	1.04 nM
